The values that follow come from publication PMC4072668, “Mass Spectrometric Detection and Characterization of Atypical Membrane-Bound Zinc-Sensitive Phosphatases Modulating GABAA Receptors” (PLoS ONE, 2014).

Experiment [1] has as its system PP4. The arrangement: method as in PMID 10617768. As to conditions: mammalian brain; cited from earlier work.
Experiment [2] relates to PP2C. Set-up: method as in PMID 10617768. As to conditions: up to 1–10 µM; cited from earlier work.
The subject of experiment [3] is membrane-bound phosphatase activities of washed cortical membrane. In words: LC-MS/MS phosphatase assay with effectors, C-terminal phosphopeptide pI2α1C-P as substrate. The format is biochemical. The protocol: (§1) Phosphatasic activity of bovine, rat and human washed cortical membranes was measured by using synthetic phosphopeptides as substrates. Reactions were performed in presence of 50 µg/ml (total proteins) of washed cortical membrane, 10 mM Hepes-Tris pH 7.4 and 1 mM MgCl2. Enzymatic reactions were initiated by adding 10 µM of phosphopeptide incubated for 10 min at 30°C and stopped by adding ice-cold acetic acid at a final concentration of 10% (w/v). Following a 800 g centrifugation during 10 min at 4°C, the supernatants were analyzed by LC-MS/MS. […] For these reasons, and to avoid micro-capillary column obstruction we have preferentially used the micro-LC column to characterize the pharmacological profile of phosphatasic activities.
Quantification of appearance of the native peptide and disappearance of the phosphopeptide in different conditions was performed using the calibration curve plotted using the Xcalibur software (P/N 64018-XCALI version 1.3). […]
Figure 4 Effects of various inhibitors on the membrane-bound phosphatase activities. […] The activities are expressed as a percentage of that of control samples without inhibitors. […]

The test system of experiment [4] is PP1. Set-up: method as in PMID 10617768. To be noted: mammalian brain; cited from earlier work.
The test system of experiment [5] is PP7. Set-up: method as in PMID 10617768. To be noted: up to 1–10 µM; cited from earlier work.
Experiment [6] deals with PP5. Set-up: method as in PMID 10617768. As to conditions: mammalian brain; cited from earlier work.
In experiment [7] the test system is alkaline phosphatase. Set-up: method as in PMID 10617768. To be noted: up to 1–10 µM; cited from earlier work.
The subject of experiment [8] is PP2B. The arrangement: method as in PMID 10617768. As to conditions: mammalian brain; cited from earlier work.
Experiment [9] has as its system GABAA receptor currents in pyramidal neurons. In words: Whole-cell patch clamp, rundown of GABAA currents in acutely dissociated cortical pyramidal neurons. The format is cell-based, rat. To be noted: 10 µM in the pipette. The protocol: Adult Sprague Dawley rats (35–40 days of age) were anesthetized by isoflurane and killed by decapitation. The brains were removed quickly and placed in cold artificial cerebro-spinal fluid (Ringer) containing (in mM) 126 NaCl, 3 KCl, 26 NaHCO3, 1.25 Na2HPO4, 2.5 CaCl2, 1.5 MgCl2, 10 D-glucose, saturated with carbogen gas (O2:CO2, 95:5%) pH 7.4. Cortical neurons were acutely dissociated from 400 µm thick slices by incubation in 3 mg/ml protease-XXIII (Sigma) at 32°C, followed by mechanical dissociation. After washing, the cells were transferred in a solution containing (in mM) 135 NaCl, 3 KCl, 2 CaCl2, 10 Hepes, 1 MgCl2, 7 TEA-Cl, 10 D-glucose, and 1 µM TTX, pH 7.4. Pyramidal neurons were recorded using borosilicate glass pipettes (4–5 MΩ) filled with a solution containing (in mM) 130 CsF, 10 CsCl, 4 NaCl, 0.5 CaCl2, 10 Hepes, 5 EGTA, and 7 Mg-ATP. Okadaic acid at 10 µM was added to this intracellular milieu for specific experiments.
Whole-cell peak currents induced by GABA (100 µM; fast applications of 1 sec pulses every 3 min) were measured for each application and normalized to the maximal response.
Figure 5 Effects of okadaic acid on the GABAA current rundown. GABAA currents were measured by whole-cell patch clamp on acutely dissociated cortical pyramidal neurons from Sprague Dawley rats. (A) Micrographs of a patched cell at two different magnifications, showing the rapid application device (left). (B) Rundown in cortical neuron: GABA was applied at a concentration of 100 µM during 1 second every 3 min. […] For each group the plot (Left) is the average of normalized currents. Error bars indicate the SEM.
On the technique in general: Patch clamp records ionic current or voltage across a cell membrane.

For experiment [10], the system named is acid phosphatase. Set-up: method as in PMID 10617768. To be noted: up to 1–10 µM; cited from earlier work.
Experiment [11] relates to membrane-bound phosphatase activities of washed cortical membrane. In words: LC-MS/MS phosphatase assay with effectors, N-terminal phosphopeptide pI2α1N-P as substrate. It is filed as biochemical. The protocol: as §1
Quantification of appearance of the native peptide and disappearance of the phosphopeptide in different conditions was performed using the calibration curve plotted using the Xcalibur software (P/N 64018-XCALI version 1.3). The calibration curve and linear regression were constructed using a series of standards, native and phosphorylated equimolar mixture, N- or C-terminal peptides at different concentrations 0.5, 1, 2, 5 and 10 µM (n = 2) in 10 mM Hepes pH 7.4, 1 mM Mg^2+ and 10% acetic acid, which was the same milieu condition as in the phosphatase assay after stopping reactions. The linear regression represents peak area of MS/MS chromatogram spectra depending on the peptide concentration (Figure S1).
Different effectors were tested by addition to the incubation medium at variable concentration: the dicationic ions Mg^2+, Ca^2+, Zn^2+ were used as chloride, the polycation spermine as hydrochloride, the anion F^− as sodium fluoride (NaF), and the inhibitors of some known phosphatases okadaic acid and the two (+/−) enantiomers of p–bromotetramisole oxalate (p-Br-t). For the inhibitory effects, relative 50% inhibition concentration (IC50) values were either determined graphically with a log-scale for the concentration axis or by the ‘log (inhibitor) vs. response’ nonlinear fit of Prism 5 software (GraphPad), considering activity in the absence of inhibitor as 100%.
Figure 4 Effects of various inhibitors on the membrane-bound phosphatase activities. […] Incubations were performed at 30°C during 10 min. The activities are expressed as a percentage of that of control samples without inhibitors. Inhibition profiles of PPase activities by okadaic acid were performed using N-terminal phosphopeptide (A) or C-terminal phosphopeptide (B) as substrate. The data points are means ± SEM of 3 experiments. The red arrows indicate the different IC50. […] Data points are the average ± SEM of duplicate assays. (D) Effect of Ca^2+ ions, fluoride (F^−) and spermine (SPM^4+) on PPase activity using N-terminal phosphopeptide as substrate.

In experiment [12] the test system is PP6. Set-up: method as in PMID 10617768. As to conditions: mammalian brain; cited from earlier work.
The test system of experiment [13] is PTP. The arrangement: method as in PMID 10617768. To be noted: up to 1–10 µM; cited from earlier work.
For experiment [14], the system named is GABAA receptor currents in pyramidal neurons. Set-up: method as in PMID 15342727. To be noted: 10 µM in the pipette milieu, four neurons; cited from earlier work.
In experiment [15] the test system is PP2A. The arrangement: method as in PMID 10617768. As to conditions: mammalian brain; cited from earlier work.

Regarding `C=C1[C@@H](O)[C@@H]2O[C@]3(CC[C@H](/C=C/[C@@H](C)[C@@H]4CC(C)=C[C@@]5(O[C@H](C[C@@](C)(O)C(=O)O)CC[C@H]5O)O4)O3)CC[C@H]2O[C@@H]1[C@@H](O)C[C@H](C)[C@H]1O[C@@]2(CCCCO2)CC[C@H]1C` [okadaic acid, Okadaic acid], the IC50 in [1] was 0.2 nM; in experiment [3] (only one affinity, read-out: apparent IC50), 0.18 nM; in experiment [4], 270 nM; in [6] it was 1.4 to 10 nM; in experiment [8], 3600 nM; in [11] (substrate pI2α1N-P, read-out: apparent IC50, high affinity (H)) it was 0.15 nM. Also, the IC50 in experiment [11] (substrate pI2α1N-P, read-out: apparent IC50, low affinity (L)) was 5 nM; in experiment [12] it was 2 nM; in experiment [15] it was 2 nM. For the same compound, the inhibition result in experiment [2], in experiment [5], in experiment [7], in experiment [10] and in experiment [13] was “not inhibited” each time. The “inhibition of membrane-bound phosphatases” value in experiment [3] (300 nM) is given as “completely inhibits”; in [11] (300 nM, substrate pI2α1N-P), “completely inhibits”. Further, in experiment [9], the “GABAA current rundown in some cells” value was “rundown could be abolished”. The “GABAA current rundown, 'Very Rapid' group of neurons vs control” value in experiment [9] (n = 5, Dunnett's test Ns) is recorded as “not sensitive to okadaic acid”. For the same compound, the “GABAA current rundown, 'Mid Rapid', 'Mid Slow' and 'Very Slow' groups of neurons vs control” value in [9] (p<0.01 Mid Rapid, p<0.0001 Mid Slow and Very Slow) is recorded as “statistically different from the control”. For the same compound, the “inhibition of phosphatasic activities by the phosphopeptide method” value in experiment [11] (10 µM, substrate not specified) is listed as “inhibited most phosphatasic activities”. Further, the “effect on the GABAA current rundown” value in [14] is reported as “variable effect”.

The IC50 is the concentration needed to halve the response being measured.
